Measurements reported in patent publication US20250344695A1, “METHOD FOR PEST CONTROL” (priority 2024, published 2025).
Values after ≈ are worked out from the molar mass of the structure shown.

What was measured:
[1] = tested on: rice weevil; experiment: large-scale chlorobenzene fumigation of corn in a 60-liter chamber, rice weevil all life stages; format: in vivo, Sitophilus oryzae; conditions: 24 h at 21° C.
Protocol: (§1) Procedure-Large-scale chlorobenzene fumigations of corn with confused flour beetle and rice weevil were conducted in a 60 L fumigation chamber. The chamber was modified from a 60 L diary pot with an added platform at bottom and a vertically positioned air blower to circulate air in the chamber (FIG. 3). A vial with filter paper was positioned near a port on the wall. A total of 20 kg corn was placed in 9 mesh bags. Confused flour beetle adults and other life stage in flour diet and rice weevil adults and other life stages in pearled barley were sealed in small plastic cages with mesh screens on top and bottom for air movement. One cage with confused four beetle culture medium with all life stages and one cage with all life stages of rice weevil were placed in each mesh bag. The bags were packed in the chamber in two layers. The last two containers with confused flour beetle and rice weevil respectively were placed on top of the corn bags. Ten cages for each species were set up to be fumigated. Five cages for each species were used as controls. The chamber was then placed in a fume hood. After the chamber was sealed, 30 ml chlorobenzene was injected into the vial in the chamber and the air blower was turned on to start a fumigation treatment. The fumigation treatment lasted 24 h at 21° C.
(§2) In each fumigation, chlorobenzene vapor concentrations were measured at 2, 4, 6, 9, 21,and 24 h of each treatment using chlorobenzene detector tubes. For each measurement, a 40 ml air sample from the headspace of the chamber was taken and diluted 50-fold in a 1.9 L glass jar. Then, chlorobenzene detectors with a range of 2-500 ppm were used to measure chlorobenzene concentrations. At the end of each fumigation, the lid of the fumigation chamber was removed, and the air blower was kept running for at least 2 h to ventilate the chamber. The corn bags were then removed and containers with insects were recovered. Insects together with diet from each cage were placed in a plastic vial. All adults were removed from each vial and mortality of adults was scored next day. All vials with diet containing other life stages were incubated at 25° C. in an environmental chamber to allow surviving immature individuals to develop and emerge as adults. The vials were checked weekly to count and remove emerged adults to assess mortality of immature stages until there was no adult emergence for two consecutive weeks. A total of three large-scale fumigation tests have been conducted.

[2] = at 20° C.; cited from earlier work
[3] = cited from earlier work
[4] = tested on: western flower thrips, Frankliniella occidentalis; experiment: chlorobenzene fumigation in 1.9-liter jars, western flower thrips larvae and adults; format: in vivo; conditions: 24 h at 2° C.
Protocol: (§3) Example 1: Chlorobenzene fumigations were conducted for control of six insect species and one mite species and they were: rice weevil, Sitophilus oryzae (Coleoptera: Curculionidae), confused flour beetle, Tribolium confusum (Coleoptera: Tenebrionidae), navel orangeworm, Amyelois transitella (Lepidoptera: Pyralidae), spotted wing drosophila, Drosophila suzukii (Diptera: Drosophilidae), western flower thrips, Frankliniella occidentalis (Thysanoptera: Thripidae), eastern subterranean termite, Reticulitermes flavipes (Blattodea: Rhinotermitidae), and ham mite, Tyrophagus putrescentiae (Schrank) (Acarina: Acaridae) (FIG. 2). Most fumigations were conducted in 1.9-liter glass jars. Confused flour beetle and rice weevil were fumigated in 1.9-liter jars and in 60-liter chambers with corn. […]
(§4) A filter paper disc was clipped on the port underneath the lid with a metal clip. […] Insect mortality was then scored. Chlorobenzene doses were recorded as microliter liquid per liter of chamber space (ul/l).
Larvae and adults of western flower thrips were collected from infested lettuce plants in small vials each containing a piece of lettuce leaf (ca 20/vial) and stored in a refrigerator to cool them down. […] Vapor concentrations of chlorobenzene were measured during fumigation. After fumigation, thrips were kept at 2° C. overnight before mortality was scored. […]

[5] = cited from earlier work; remark: listed apart in the source
[6] = tested on: ham mite, Tyrophagus putrescentiae; experiment: chlorobenzene fumigation in 1.9-liter jars, ham mites on dog food kibbles; format: in vivo; conditions: 21° C., larvae and adults
Protocol: as §3, with “corn. Navel orangeworm was fumigated in 21.8 L chambers modified from pressure cookers.” for “corn.”
as §4
Ham mites on infested dog food kibbles were fumigated with chlorobenzene at different doses for 24 and 48 h at 21° C. […] After fumigation, vials with ham mites were held at 21° C. overnight before mortality of larvae and adults was scored. […] Chlorobenzene vapor concentrations were measured during each fumigation. […]

[7] = air=1; cited from earlier work
[8] = tested on: spotted wing drosophila, Drosophila suzukii; experiment: chlorobenzene fumigation in 1.9-liter jars, spotted wing drosophila flies; format: in vivo; conditions: 50 μl/l dose, 3 h at 21° C.
Protocol: (§5) Example 1: Chlorobenzene fumigations were conducted for control of six insect species and one mite species and they were: rice weevil, Sitophilus oryzae (Coleoptera: Curculionidae), confused flour beetle, Tribolium confusum (Coleoptera: Tenebrionidae), navel orangeworm, Amyelois transitella (Lepidoptera: Pyralidae), spotted wing drosophila, Drosophila suzukii (Diptera: Drosophilidae), western flower thrips, Frankliniella occidentalis (Thysanoptera: Thripidae), eastern subterranean termite, Reticulitermes flavipes (Blattodea: Rhinotermitidae), and ham mite, Tyrophagus putrescentiae (Schrank) (Acarina: Acaridae) (FIG. 2). Most fumigations were conducted in 1.9-liter glass jars. Confused flour beetle and rice weevil were fumigated in 1.9-liter jars and in 60-liter chambers with corn. Navel orangeworm was fumigated in 21.8 L chambers modified from pressure cookers.
Rice weevil and confused flour beetle were reared on pearled barley and wheat flour diet in jars, respectively. Western flower thrips were reared on lettuce plants in a greenhouse. Spotted wing drosophila was reared on an artificial diet in plastic cups. […]
A filter paper disc was clipped on the port underneath the lid with a metal clip. […] Insect mortality was then scored. Chlorobenzene doses were recorded as microliter liquid per liter of chamber space (ul/l). […]

[9] = tested on: navel orangeworm, Amyelois transitella; experiment: 24 h chlorobenzene fumigation in 21.8-liter chambers, navel orangeworm eggs, larvae and pupae; format: in vivo; conditions: 24 h at 21° C.; for Larvae Mortality (%) Mean ± SE: 2nd, 4th, 6th instar pooled
Protocol: Procedure-Navel orangeworm eggs, larvae, and pupae were fumigated with chlorobenzene for 24 h at 21° C. in 21.8L chambers modified from pressure cookers to determine effects on mortality. Each chamber has a fan to circulate air. A small container with a piece of filter affixed in it was positioned next to the fan in each chamber as a reservoir for chlorobenzene (FIG. 4). Egg sheet with eggs oviposited during the last 3 days was harvested and cut into small pieces each with about 50 eggs. One piece of egg sheet was placed in a small 49 ml plastic vial and sealed with a screened lid. Larvae of three different ages (2nd, 4th, and 6th) were set up separately in 157 ml plastic vials each containing 3 g diet (10/vial). The vial was sealed with a screened lid. Three chlorobenzene does 50, 100, and 200 μl/l were tested in three chambers. They were achieved by adding 1, 2, and 4 ml of chlorobenzene in reservoirs in three fumigation chambers, respectively. Except for eggs that were only fumigated with chlorobenzene at 100 and 200 μl/l together with larvae and pupae, in each test, 5 vials of eggs, 9 vials of larvae (3 vials for each stage), and 3 vials of pupae were fumigated in one chamber. Controls were also set up for all life stages tested.
After chlorobenzene was added, the chamber was sealed and the fan was turned on to circulate air continuously for the 24 h duration of fumigation. Chlorobenzene detector tubes were used to measure chlorobenzene vapor concentrations 5-6 times between 2 h after start and before the end of fumigations. By the end of fumigation, all chlorobenzene liquid had vaporized in all three treatments. After fumigation, vials with larvae were held at 21° C. overnight before larval mortality was scored. For navel orangeworm eggs, diet was added in each vial and vials were incubated at 25° C. to allow all viable eggs to hatch. After over 10 days, neonate larvae were counted to estimate egg mortality. Pupae were also incubated at 25° C. in an environmental chamber to allow all viable pupae to develop into moths, and moths were then counted to determine pupal mortality. A total of three tests were conducted.

[10] = tested on: confused flour beetle, Tribolium confusum; experiment: chlorobenzene fumigation in 1.9-liter jars, confused flour beetle adults; format: in vivo; conditions: 21° C.
Protocol: as §5, with “cookers. […]” for “cookers.”
as §4
(§6) Confused flour beetle and rice weevil adults were collected separately in plastic vials from their prospective colonies. […] Chlorobenzene vapor concentrations were measured during fumigation using detector tubes. After fumigation, insects were kept at room temperature overnight before being scored for mortality. […]

[11] = tested on: rice weevil, Sitophilus oryzae; experiment: chlorobenzene fumigation in 1.9-liter jars, rice weevil adults; format: in vivo; conditions: 21° C.
Protocol: as §5, with “cookers. […]” for “cookers.”
as §4, §6

[12] = tested on: confused flour beetle; experiment: large-scale chlorobenzene fumigation of corn in a 60-liter chamber, confused flour beetle all life stages; format: in vivo, Tribolium confusum; conditions: 24 h at 21° C.
Protocol: as §1, §2

[13] = tested on: eastern subterranean termite, Reticulitermes flavipes; experiment: chlorobenzene fumigation in 1.9-liter jars, eastern subterranean termite workers; format: in vivo; conditions: 50 μl/l dose, 3 h at 21° C.
Protocol: as §5
Rice weevil and confused flour beetle were reared on pearled barley and wheat flour diet in jars, respectively. […]
as §4
Workers of eastern subterranean termites were obtained from a commercial source. […] After fumigation, vials with insects were held in an environmental chamber overnight before mortality was scored. […]

[14] = 30 ml chlorobenzene in 60 L chamber with 20 kg corn
[15] = large-scale fumigations of corn, 60 L chamber
[16] = 100 μl/l dose (800 ppm vapor concentration), 48-h fumigation
[17] = 150 μl/l dose (1800 ppm vapor concentration), 24-h fumigation

Clc1ccccc1 [chlorobenzene]
Adults Mortality (%) [1, 14]: 100% | Immature stages Survived to adults ([1]; 30 ml chlorobenzene in 60 L chamber with 20 kg corn, adults emerged from 30 treatment vials (1645 from 15 control vials)): 73 | Immature stages Relative mortality (%) ([1]; 30 ml chlorobenzene in 60 L chamber with 20 kg corn, relative to control by adults emerged, assuming equal numbers of vials): 97.8% | control of adults of rice weevil [1, 15]: complete control | vapor pressure [2]: 11.7 mmHg | water solubility [3]: 466.3 µg/mL (≈ 4.14 mM) | mortality at 370 ppm ([4]; 50 μl/l dose (about 370 ppm)): 95.3% | mortality at 630 ppm ([4]; 75 μl/l dose (about 630 ppm)): 100% | OSHA exposure limit ([5]; 8-hour workday and 40-hour work week): 75 ppm | oral and dermal toxicity ([5]; EPA category 4): very low | carcinogenicity ([5]; reported): non-carcinogenic | mortality at 1700 ppm ([6]; 150 μl/l dose (about 1700 ppm), 48-h fumigation): 99.9% | mortality at 2000 ppm ([6]; 200 μl/l dose (about 2000 ppm), 24-h fumigation): 100% | vapor density relative to air [7]: 3.9 | mortality of spotted wing drosophila flies [8]: 100% | Pupae Mortality (%) Mean ± SE ([9]; 50 μl/l dose): 7.4 ± 3.8% | Larvae Mortality (%) Mean ± SE ([9]; 50 μl/l dose): 20.4 ± 3.6% | Pupae Mortality (%) Mean ± SE ([9]; 100 μl/l dose): 20.4 ± 5.0% | Larvae Mortality (%) Mean ± SE ([9]; 100 μl/l dose): 69.1 ± 4.6% | Eggs Total neonates ([9]; 100 μl/l dose, 890 eggs (control 370 neonates of 887)): 0 | Pupae Mortality (%) Mean ± SE ([9]; 200 μl/l dose): 43.5% | Larvae Mortality (%) Mean ± SE ([9]; 200 μl/l dose): 95.9 ± 1.3% | Eggs Total neonates ([9]; 200 μl/l dose, 884 eggs (control 370 neonates of 887)): 0 | effect on navel orangeworm eggs ([9]; both doses (100 and 200 μl/l)): All eggs were killed | mortality of confused flour beetle adults [10, 16]: 100% | mortality of confused flour beetle adults [10, 17]: 100% | mortality of rice weevil adults [11, 16]: 100% | mortality of rice weevil adults [11, 17]: 100% | Adults Mortality (%) [12, 14]: 100% | Immature stages Survived to adults ([12]; 30 ml chlorobenzene in 60 L chamber with 20 kg corn, adults emerged from 30 treatment vials): 0 | Immature stages Relative mortality (%) ([12]; 30 ml chlorobenzene in 60 L chamber with 20 kg corn, relative to control by adults emerged): 100% | control of adults and immature life stages of confused flour beetle [12, 15]: Complete control | mortality of termite workers [13]: 100%
